Data from patent US9695155B2, “Herbicidal substituted pyrimidinyloxy benzene compounds” (E. I. DU PONT DE NEMOURS AND COMPANY, priority 2013, dated 2017).

Key:
[1] = tested on: wild poinsettia; assay: Test E preemergence; type: in vivo, Euphorbia heterophylla; details: for Poinsettia, Wild plant response rating: scale 0 to 100 (0 no effect, 100 complete control); for Plant response rating, Poinsettia, Wild: scale 0 to 100, 0 no effect, 100 complete control
Summary of the method: (§1)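 Response was scored visually on a 0-100 scale (100 = complete control) versus controls after 14 to 21 days in the greenhouse. Test chemicals, formulated with surfactant in a non-phytotoxic solvent mixture, had been applied preemergence to seeds in silt loam soil or postemergence to 1- to 4-leaf plants in potting medium.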

[2] = tested on: surinam grass; assay: Test E preemergence; type: in vivo, Brachiaria decumbens; details: for Surinam Grass plant response rating: scale 0 to 100 (0 no effect, 100 complete control); for Plant response rating, Surinam Grass: scale 0 to 100, 0 no effect, 100 complete control
Summary of the method: as §1

[3] = tested on: giant foxtail; assay: Test E preemergence; type: in vivo, Setaria faberii; details: for Foxtail, Giant plant response rating: scale 0 to 100 (0 no effect, 100 complete control); for Plant response rating, Foxtail, Giant: scale 0 to 100, 0 no effect, 100 complete control
Summary of the method: as §1

[4] = tested on: green foxtail; assay: Test E preemergence; type: in vivo, Setaria viridis; details: for Foxtail, Green plant response rating: scale 0 to 100 (0 no effect, 100 complete control); for Plant response rating, Foxtail, Green: scale 0 to 100, 0 no effect, 100 complete control
Summary of the method: as §1

[5] = tested on: goosegrass; assay: Test E preemergence; type: in vivo, Eleusine indica; details: for Goosegrass plant response rating: scale 0 to 100 (0 no effect, 100 complete control); for Plant response rating, Goosegrass: scale 0 to 100, 0 no effect, 100 complete control
Summary of the method: as §1

[6] = tested on: ragweed; assay: Test E preemergence; type: in vivo, Ambrosia elatior; details: for Ragweed plant response rating: scale 0 to 100 (0 no effect, 100 complete control); for Plant response rating, Ragweed: scale 0 to 100, 0 no effect, 100 complete control
Summary of the method: as §1

[7] = tested on: morningglory; assay: Test E preemergence; type: in vivo, Ipomoea coccinea; details: for Morningglory plant response rating: scale 0 to 100 (0 no effect, 100 complete control); for Plant response rating, Morningglory: scale 0 to 100, 0 no effect, 100 complete control
Summary of the method: as §1

[8] = tested on: nightshade; assay: Test E preemergence; type: in vivo, Solanum ptycanthum; details: for Nightshade plant response rating: scale 0 to 100 (0 no effect, 100 complete control); for Plant response rating, Nightshade: scale 0 to 100, 0 no effect, 100 complete control
Summary of the method: as §1

[9] = tested on: yellow nutsedge; assay: Test E preemergence; type: in vivo, Cyperus esculentus; details: for Nutsedge, Yellow plant response rating: scale 0 to 100 (0 no effect, 100 complete control); for Plant response rating, Nutsedge, Yellow: scale 0 to 100, 0 no effect, 100 complete control
Summary of the method: as §1

[10] = tested on: hairy beggarticks; assay: Test E preemergence; type: in vivo, Bidens pilosa; details: for Beggarticks plant response rating: scale 0 to 100 (0 no effect, 100 complete control); for Plant response rating, Beggarticks: scale 0 to 100, 0 no effect, 100 complete control
Summary of the method: as §1

[11] = tested on: corn; assay: Test E postemergence; type: in vivo, Zea mays; details: Postemergence, scale 0 to 100
Summary of the method: as §1

[12] = tested on: soybean; assay: Test E postemergence; type: in vivo, Glycine max; details: Postemergence, scale 0 to 100
Summary of the method: as §1

[13] = tested on: Brazilian crabgrass; assay: Test E postemergence; type: in vivo, Digitaria horizontalis; details: Postemergence, scale 0 to 100
Summary of the method: as §1

[14] = tested on: barnyardgrass; assay: Test E postemergence; type: in vivo, Echinochloa crus-galli; details: Postemergence, scale 0 to 100
Summary of the method: as §1

[15] = tested on: sandbur; assay: Test E postemergence; type: in vivo, Cenchrus echinatus; details: Postemergence, scale 0 to 100
Summary of the method: as §1

[16] = tested on: arrowleaf sida; assay: Test E postemergence; type: in vivo, Sida rhombifolia; details: Postemergence, scale 0 to 100
Summary of the method: as §1

N#Cc1cccc(Oc2ncc(Cl)cn2)c1-n1cc(Cl)cn1 [Compound 72]
Poinsettia, Wild plant response rating ([1]; 16 g ai/ha): 15 | Poinsettia, Wild plant response rating ([1]; 31 g ai/ha): 5 | Poinsettia, Wild plant response rating ([1]; 62 g ai/ha): 15 | Plant response rating, Poinsettia, Wild ([1]; 125 g ai/ha): 70 | Plant response rating, Poinsettia, Wild ([1]; 250 g ai/ha): 70 | Surinam Grass plant response rating ([2]; 16 g ai/ha): 20 | Surinam Grass plant response rating ([2]; 31 g ai/ha): 20 | Surinam Grass plant response rating ([2]; 62 g ai/ha): 20 | Plant response rating, Surinam Grass ([2]; 125 g ai/ha): 10 | Plant response rating, Surinam Grass ([2]; 250 g ai/ha): 30 | Foxtail, Giant plant response rating ([3]; 16 g ai/ha): 35 | Foxtail, Giant plant response rating ([3]; 31 g ai/ha): 35 | Foxtail, Giant plant response rating ([3]; 62 g ai/ha): 95 | Plant response rating, Foxtail, Giant ([3]; 125 g ai/ha): 98 | Plant response rating, Foxtail, Giant ([3]; 250 g ai/ha): 100 | Foxtail, Green plant response rating ([4]; 16 g ai/ha): 30 | Foxtail, Green plant response rating ([4]; 31 g ai/ha): 30 | Foxtail, Green plant response rating ([4]; 62 g ai/ha): 95 | Plant response rating, Foxtail, Green ([4]; 125 g ai/ha): 100 | Plant response rating, Foxtail, Green ([4]; 250 g ai/ha): 100 | Goosegrass plant response rating ([5]; 16 g ai/ha): 0 | Goosegrass plant response rating ([5]; 31 g ai/ha): 60 | Goosegrass plant response rating ([5]; 62 g ai/ha): 80 | Plant response rating, Goosegrass ([5]; 125 g ai/ha): 98 | Plant response rating, Goosegrass ([5]; 250 g ai/ha): 100 | Ragweed plant response rating ([6]; 16 g ai/ha): 0 | Ragweed plant response rating ([6]; 31 g ai/ha): 0 | Ragweed plant response rating ([6]; 62 g ai/ha): 5 | Plant response rating, Ragweed ([6]; 125 g ai/ha): 50 | Plant response rating, Ragweed ([6]; 250 g ai/ha): 95 | Morningglory plant response rating ([7]; 16 g ai/ha): 0 | Morningglory plant response rating ([7]; 31 g ai/ha): 0 | Morningglory plant response rating ([7]; 62 g ai/ha): 15 | Plant response rating, Morningglory ([7]; 125 g ai/ha): 15 | Plant response rating, Morningglory ([7]; 250 g ai/ha): 35 | Nightshade plant response rating ([8]; 16 g ai/ha): 0 | Nightshade plant response rating ([8]; 31 g ai/ha): 65 | Nightshade plant response rating ([8]; 62 g ai/ha): 100 | Plant response rating, Nightshade ([8]; 125 g ai/ha): 98 | Plant response rating, Nightshade ([8]; 250 g ai/ha): 100 | Nutsedge, Yellow plant response rating ([9]; 16 g ai/ha): 0 | Nutsedge, Yellow plant response rating ([9]; 31 g ai/ha): 0 | Nutsedge, Yellow plant response rating ([9]; 62 g ai/ha): 0 | Plant response rating, Nutsedge, Yellow ([9]; 125 g ai/ha): 25 | Plant response rating, Nutsedge, Yellow ([9]; 250 g ai/ha): 50 | Beggarticks plant response rating ([10]; 16 g ai/ha, preemergence): 0 | Beggarticks plant response rating ([10]; 31 g ai/ha, preemergence): 0 | Plant response rating, Beggarticks ([10]; Preemergence, 62 g ai/ha): 5 | Plant response rating, Beggarticks ([10]; preemergence, 125 g ai/ha): 5 | Plant response rating, Beggarticks ([10]; preemergence, 250 g ai/ha): 30 | Plant response rating, Corn ([11]; 62 g ai/ha): 15 | Plant response rating, Corn ([11]; 125 g ai/ha): 10 | Plant response rating, Soybean ([12]; 62 g ai/ha): 95 | Plant response rating, Soybean ([12]; 125 g ai/ha): 95 | Plant response rating, Crabgrass, Brazil ([13]; 62 g ai/ha): 10 | Plant response rating, Crabgrass, Brazil ([13]; 125 g ai/ha): 20 | Plant response rating, Barnyardgrass ([14]; 62 g ai/ha): 0 | Plant response rating, Barnyardgrass ([14]; 125 g ai/ha): 10 | Plant response rating, Sandbur ([15]; 62 g ai/ha): 0 | Plant response rating, Sandbur ([15]; 125 g ai/ha): 0 | Plant response rating, Arrowleaf Sida ([16]; 62 g ai/ha): 50 | Plant response rating, Arrowleaf Sida ([16]; 125 g ai/ha): 75
